The text below walks through data of patent US6521662B2, “Ceramide-like compounds having antioxidant property and a method for preparation thereof, and a cosmetic composition containing the same” (Pacific Corporation, priority 2000, dated 2003).

Data set [1] in a line: Anti-oxidative activity using linoleic acid. The following applies: ammoniumthiocyanate, after 3 minutes, lower absorbance means higher anti-oxidative activity. How it is done: Anti-oxidative activity using linoleic acid
Linoleic acid is easily oxidized to be peroxide due to double bond contained therein. Therefore, this experiment utilized the above property.
The control solution employed in this experiment was prepared by adding 2.88 ml of 2.5% linoeic acid in ethanol and 9 ml of 40 mmol phosphate buffer(pH 7.0) to 200 ml of ethanol. This control solution was maintained in the dark of 40° C. And, sample solutions were prepared by adding 9.7 ml of 75% ethanol, 0.1 ml of 30% ammoniumthiocyanate and 0.1 ml of each sample, to 0.1 ml of the control solution. After 3 minutes, the absorbance was measured at 500 nm by using a UV spectrophotometer. Lower absorbance value means higher anti-oxidative activity.

Data set [2] in a line: Anti-oxidative activity using DPPH. Conditions: 37° C. for 30 minutes; UV spectrophotometer. The method, then: Anti-oxidative activity using DPPH
Diphenylpicrylhydrazyl(DPPH) has been known as a radical reaction inhibitor which is stabilized by the radical reaction. Also, it has a chromophoric property with compounds having anti-oxidative activity. Therefore, this experiment utilized the above property.
About 50 ml of DPPH was introduced into the test tube. And samples were added dropwise thereto. After addition, the test tube was maintained in constant temperature bath of 37° C. for 30 minutes. The extent of color development was measured by UV spectrophotometer.
Background: Loss of DPPH colour is used to gauge radical scavenging.

The nature of data set [3]: Solubility of natural ceramide and ceramide-like compounds in cosmetic solvents. It counts as physicochemical. The following applies: 20° C.; dissolved at 80° C. then cooled to 20° C. The method, then: The solubility of a natural ceramide and of ceramide-like compounds:
Ceramide Type 3 represented by the following formula (III) has been mainly used in cosmetics. Accordingly, in this experiment were compared solubility of the ceramide Type 3 (obtained from bovine brain) and the ceramide-like compounds of Examples 1 to 3 in various solvents such as ethanol, which have been widely used in cosmetics. Samples were dissolved in the solvents of 80° C. then cooled to 20° C.

Turning to `Cc1c(C)c2c(c(C)c1OC(=O)CCC(=O)N(CCO)CC(O)CN(CCO)C(=O)CCC(=O)Oc1c(C)c(C)c3c(c1C)CCC(C)(CCCC(C)CCCC(C)CCCC(C)C)O3)CCC(C)(CCCC(C)CCCC(C)CCCC(C)C)O2` (stereo not drawn) [Example 1, 1,3-bis(N-(2-hydroxyethyl)-α-tocopherylsuccinoylamino) -2-hydroxypropane], in data set [1], the “Absorbance at 500 nm (Experiment Example 5-2)” value (“Absorbance at 500 nm” below) was determined as 0.23. The “Color development with DPPH (Experiment Example 5-1)” value (from here on “Color development with DPPH”) in data set [2] is given as “Brown”. For the same compound, in data set [3], the “Solubility in Cetyl octanoate” value was above 5% wt/wt %, the “Solubility in Ethanol” value is listed as above 5% wt/wt %, the “Solubility in Isopropyl palmitate” value is reported as above 5% wt/wt % and the “Solubility in Octyl Palmitate” value is reported as above 5% wt/wt %. The “Solubility in Octyl dodecanol” value in data set [3] was above 5% wt/wt %.

Turning to `Cc1cc(OC(=O)CCC(=O)N(CCO)CC(O)CN(CCO)C(=O)CCC(=O)Oc2cc(C)c3c(c2)CCC(C)(CCCC(C)CCCC(C)CCCC(C)C)O3)cc2c1OC(C)(CCCC(C)CCCC(C)CCCC(C)C)CC2` (stereo not drawn) [Example 2, 1,3-bis(N-(2-hydroxyethyl)-δ-tocopherylsuccinoylamino) -2-hydroxypropane], the “Absorbance at 500 nm” value in data set [1] is 0.29. In addition, in data set [2], the “Color development with DPPH” value is given as “Brown”. Further, in data set [3], the “Solubility in Cetyl octanoate” value was above 5% wt/wt %, the “Solubility in Ethanol” value was above 5% wt/wt %, the “Solubility in Isopropyl palmitate” value was above 5% wt/wt % and the “Solubility in Octyl Palmitate” value is above 5% wt/wt %. Further, the “Solubility in Octyl dodecanol” value in data set [3] is above 5% wt/wt %.

As to `Cc1c(OC(=O)CCC(=O)N(CCO)CC(O)CN(CCO)C(=O)CCC(=O)Oc2cc3c(c(C)c2C)OC(C)(CCCC(C)CCCC(C)CCCC(C)C)CC3)cc2c(c1C)OC(C)(CCCC(C)CCCC(C)CCCC(C)C)CC2` (stereo not drawn) [Example 3, 1,3-bis(N-(2-hydroxyethyl)-γ-tocopherylsuccinoylamino)-2-hydroxypropane], the “Absorbance at 500 nm” value in data set [1] was determined as 0.30. Moreover, in data set [2], the “Color development with DPPH” value is recorded as “Brown”. Also, in data set [3], the “Solubility in Cetyl octanoate” value is above 5% wt/wt %, the “Solubility in Ethanol” value is given as above 5% wt/wt %, the “Solubility in Isopropyl palmitate” value is recorded as above 5% wt/wt % and the “Solubility in Octyl Palmitate” value is reported as above 5% wt/wt %. Besides, the “Solubility in Octyl dodecanol” value in data set [3] is given as above 5% wt/wt %.

As for `CCCCCCCCCCCCCCCCCCCCCCCC(=O)NC(CO)C(O)C(O)CCCCCCCCCCCCCC` (stereo not drawn) [Natural Ceramide (type 3), reference compound], in data set [3], the “Solubility in Cetyl octanoate” value is on record as below 1% wt/wt %, the “Solubility in Ethanol” value was below 1% wt/wt %, the “Solubility in Isopropyl palmitate” value is on record as below 1% wt/wt % and the “Solubility in Octyl Palmitate” value was below 1% wt/wt %. In addition, the “Solubility in Octyl dodecanol” value in data set [3] is below 1% wt/wt %.

As to `CC(=O)Oc1c(C)c(C)c2c(c1C)CCC(C)(CCC[C@H](C)CCC[C@H](C)CCCC(C)C)O2` (stereo partly drawn) [Vitamin E acetate, reference compound], the “Absorbance at 500 nm” value in data set [1] was 0.44. Moreover, the “Color development with DPPH” value in data set [2] is reported as “No color change”.

On to Vitamin E [reference compound], for which the “Absorbance at 500 nm” value in data set [1] was found to be 0.23. Besides, the “Color development with DPPH” value in data set [2] was “No color change”.
